Measured values as given in PMC7531004, “Discovery of gramicidin A analogues with altered activities by multidimensional screening of a one-bead-one-compound library” (Nature Communications, 2020).
Where a SMILES comes first, the peptide text is derived from it. [ ]: non-standard residue; d: D form. The star is where a group is joined. NHCH2CH2OH = OCCN*; For = O=C*

What was measured:
[1] = tested on: Streptococcus pyogenes SSI-9; assay: Antibacterial activity assay of bead-derived peptides (three concentrations); assay type: cell-based; set-up: key: +++: inhibition by the 640-fold diluted peptide solution; ++: inhibition by the 160-fold diluted solution; +: inhibition by the 40-fold diluted solution; -: no inhibition; conditions: S. pyogenes, bead-derived peptide solution, three concentrations
In short: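 Undiluted, 4-fold and 16-fold DMSO-diluted peptide stocks; S. pyogenes SSI-9, 2 × 10^5 CFU, cation-adjusted MHB (50 mg/L Ca2+, 25 mg/L Mg2+) + 5% laked horse blood; 37 °C, 18 h; readout = cell pellet visible or not.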

[2] = H+/Na+ transport assay of bead-derived peptides (one-point); assay type: biochemical; set-up: key: relative activity; mean of two control wells = 1.00; conditions: bead-derived peptide solution, EYPC/EYPG LUVs;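 note: relative to parent gramicidin A activity set to 1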
In short: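 One-point screen: peptide + pyranine-loaded LUVs, 30 min RT with vortexing, 96-well. Read-out is fluorescence intensity scaled as 100 × (Ix – I0)/(Imax – I0). Imax from Triton X-100, I0 from untreated vesicles, and the mean of the two control wells is set to 1.00.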

[3] = tested on: P388 mouse leukemia cells; conditions: 92 h
In short: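 P388 cells at 1 × 10^4 cells/mL (final) were exposed to library peptides (stocks diluted 250-fold in RPMI1640/10% FBS) for 92 h at 37 °C, 5% CO2. Viable cells were counted by WST-1/1-methoxy PMS (4 h), absorbance 415 nm, and expressed as cell viability (%).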

Structure (SMILES)	antibacterial activity [1]	H+/Na+ transport activity normalized against the value of 1 (1.00) [2]	cell viability/% [3] [%]
CC(C)C[C@@H](NC(=O)[C@H](Cc1c[nH]c2ccccc12)NC(=O)[C@@H](CC(C)C)NC(=O)[C@@H](NC(=O)[C@H](NC(=O)[C@H](C)NC(=O)[C@H](NC(=O)[C@H](C)NC(=O)CNC(=O)[C@@H](NC=O)C(C)C)[C@H](C)O)C(C)C)C(C)C)C(=O)N[C@@H](Cc1c[nH]c2ccccc12)C(=O)N[C@H](CC(C)C)C(=O)N[C@@H](Cc1c[nH]c2ccccc12)C(=O)N[C@@H](C(=O)N[C@@H](Cc1c[nH]c2ccccc12)C(=O)NCCO)C(C)C [compound 94] (For-VGA[dT]A[dV]V[dL]W[dL]W[dL]W[dV]W-NHCH2CH2OH)	-	1.16	100.0
CC(C)C[C@@H](NC(=O)[C@H](C)NC(=O)[C@H](NC(=O)[C@H](C)NC(=O)CNC(=O)[C@@H](NC=O)C(C)C)C(C)C)C(=O)N[C@H](C(=O)N[C@@H](C(=O)N[C@@H](Cc1c[nH]c2ccccc12)C(=O)N[C@@H](C(=O)N[C@@H](Cc1c[nH]c2ccccc12)C(=O)N[C@@H](C(=O)N[C@@H](Cc1c[nH]c2ccccc12)C(=O)N[C@@H](C(=O)N[C@@H](Cc1c[nH]c2ccccc12)C(=O)NCCO)C(C)C)C(C)C)C(C)C)C(C)C)C(C)C [compound 13030] (For-VGA[dV]A[dL]V[dV]W[dV]W[dV]W[dV]W-NHCH2CH2OH)	+	1.42	99.9
CC(C)C[C@@H](NC(=O)[C@H](C)NC(=O)[C@H](NC(=O)[C@H](C)NC(=O)CNC(=O)[C@@H](NC=O)C(C)C)C(C)C)C(=O)N[C@H](C(=O)N[C@H](CC(C)C)C(=O)N[C@@H](Cc1c[nH]c2ccccc12)C(=O)N[C@H](CC(C)C)C(=O)N[C@@H](Cc1c[nH]c2ccccc12)C(=O)N[C@H](CC(C)C)C(=O)N[C@@H](Cc1c[nH]c2ccccc12)C(=O)N[C@H](CC(C)C)C(=O)N[C@@H](Cc1c[nH]c2ccccc12)C(=O)NCCO)C(C)C [compound 1343] (For-VGA[dV]A[dL]V[dL]W[dL]W[dL]W[dL]W-NHCH2CH2OH)	-	1.02	4.0
CC(C)C[C@@H](NC(=O)[C@H](C)NC(=O)CNC(=O)[C@@H](NC=O)C(C)C)C(=O)N[C@@H](C)C(=O)N[C@@H](C(=O)N[C@H](C(=O)N[C@@H](C(=O)N[C@@H](Cc1c[nH]c2ccccc12)C(=O)N[C@@H](C(=O)N[C@@H](Cc1c[nH]c2ccccc12)C(=O)N[C@H](CC(C)C)C(=O)N[C@@H](Cc1c[nH]c2ccccc12)C(=O)N[C@@H](C(=O)N[C@@H](Cc1c[nH]c2ccccc12)C(=O)NCCO)C(C)C)C(C)C)C(C)C)C(C)C)C(C)C [compound 11438] (For-VGA[dL]A[dV]V[dV]W[dV]W[dL]W[dV]W-NHCH2CH2OH)	++	1.18	100.0
CNC(=O)C[C@@H](NC(=O)[C@H](Cc1c[nH]c2ccccc12)NC(=O)[C@H](NC(=O)[C@H](Cc1c[nH]c2ccccc12)NC(=O)[C@@H](CC(C)C)NC(=O)[C@H](Cc1c[nH]c2ccccc12)NC(=O)[C@@H](CC(C)C)NC(=O)[C@@H](NC(=O)[C@@H](CC(C)C)NC(=O)[C@H](C)NC(=O)[C@@H](CC(C)C)NC(=O)[C@H](C)NC(=O)CNC(=O)[C@@H](NC=O)C(C)C)C(C)C)C(C)C)C(=O)N[C@@H](Cc1c[nH]c2ccccc12)C(=O)NCCO [compound 3911] (For-VGA[dL]A[dL]V[dL]W[dL]W[dV]W[dD](NHMe)W-NHCH2CH2OH)	-	1.00	100.0
CC(C)C[C@@H](NC(=O)[C@H](C)NC(=O)[C@H](NC(=O)[C@H](C)NC(=O)CNC(=O)[C@@H](NC=O)C(C)C)C(C)C)C(=O)N[C@H](C(=O)N[C@@H](C(=O)N[C@@H](Cc1c[nH]c2ccccc12)C(=O)N[C@@H](C(=O)N[C@@H](Cc1c[nH]c2ccccc12)C(=O)N[C@H](CC(C)C)C(=O)N[C@@H](Cc1c[nH]c2ccccc12)C(=O)N[C@@H](C(=O)N[C@@H](Cc1c[nH]c2ccccc12)C(=O)NCCO)[C@H](C)O)C(C)C)C(C)C)C(C)C [compound 8731] (For-VGA[dV]A[dL]V[dV]W[dV]W[dL]W[dT]W-NHCH2CH2OH)	-	1.05	71.2
CC(C)C[C@@H](NC(=O)[C@H](C)NC(=O)[C@H](NC(=O)[C@H](C)NC(=O)CNC(=O)[C@@H](NC=O)C(C)C)[C@H](C)O)C(=O)N[C@H](C(=O)N[C@H](CC(C)C)C(=O)N[C@@H](Cc1c[nH]c2ccccc12)C(=O)N[C@H](CC(C)C)C(=O)N[C@@H](Cc1c[nH]c2ccccc12)C(=O)N[C@@H](C(=O)N[C@@H](Cc1c[nH]c2ccccc12)C(=O)N[C@H](CC(C)C)C(=O)N[C@@H](Cc1c[nH]c2ccccc12)C(=O)NCCO)C(C)C)C(C)C [compound 1516] (For-VGA[dT]A[dL]V[dL]W[dL]W[dV]W[dL]W-NHCH2CH2OH)	-	1.06	100.0
CNC(=O)C[C@@H](NC(=O)[C@H](Cc1c[nH]c2ccccc12)NC(=O)[C@H](NC(=O)[C@H](Cc1c[nH]c2ccccc12)NC(=O)[C@H](NC(=O)[C@H](Cc1c[nH]c2ccccc12)NC(=O)[C@@H](CC(C)C)NC(=O)[C@@H](NC(=O)[C@H](NC(=O)[C@H](C)NC(=O)[C@H](NC(=O)[C@H](C)NC(=O)CNC(=O)[C@@H](NC=O)C(C)C)C(C)C)C(C)C)C(C)C)C(C)C)C(C)C)C(=O)N[C@@H](Cc1c[nH]c2ccccc12)C(=O)NCCO [compound 5604] (For-VGA[dV]A[dV]V[dL]W[dV]W[dV]W[dD](NHMe)W-NHCH2CH2OH)	-	1.03	69.7
CC(C)C[C@@H](NC(=O)[C@H](C)NC(=O)CNC(=O)[C@@H](NC=O)C(C)C)C(=O)N[C@@H](C)C(=O)N[C@@H](C(=O)N[C@H](C(=O)N[C@@H](C(=O)N[C@@H](Cc1c[nH]c2ccccc12)C(=O)N[C@@H](C(=O)N[C@@H](Cc1c[nH]c2ccccc12)C(=O)N[C@H](CC(C)C)C(=O)N[C@@H](Cc1c[nH]c2ccccc12)C(=O)N[C@H](CC(C)C)C(=O)N[C@@H](Cc1c[nH]c2ccccc12)C(=O)NCCO)C(C)C)[C@H](C)O)C(C)C)C(C)C [compound 6225] (For-VGA[dL]A[dV]V[dT]W[dV]W[dL]W[dL]W-NHCH2CH2OH)	-	1.10	80.8
CNC(=O)C[C@@H](NC(=O)[C@@H](NC(=O)[C@H](NC(=O)[C@H](C)NC(=O)[C@H](NC(=O)[C@H](C)NC(=O)CNC(=O)[C@@H](NC=O)C(C)C)C(C)C)C(C)C)C(C)C)C(=O)N[C@@H](Cc1c[nH]c2ccccc12)C(=O)N[C@H](CC(C)C)C(=O)N[C@@H](Cc1c[nH]c2ccccc12)C(=O)N[C@H](CC(C)C)C(=O)N[C@@H](Cc1c[nH]c2ccccc12)C(=O)N[C@@H](C(=O)N[C@@H](Cc1c[nH]c2ccccc12)C(=O)NCCO)C(C)C [compound 231] (For-VGA[dV]A[dV]V[dD](NHMe)W[dL]W[dL]W[dV]W-NHCH2CH2OH)	-	1.14	100.0
CC(C)C[C@@H](NC(=O)[C@H](C)NC(=O)[C@H](NC(=O)[C@H](C)NC(=O)CNC(=O)[C@@H](NC=O)C(C)C)C(C)C)C(=O)N[C@H](C(=O)N[C@@H](C(=O)N[C@@H](Cc1c[nH]c2ccccc12)C(=O)N[C@H](CC(C)C)C(=O)N[C@@H](Cc1c[nH]c2ccccc12)C(=O)N[C@@H](C(=O)N[C@@H](Cc1c[nH]c2ccccc12)C(=O)N[C@H](CC(C)C)C(=O)N[C@@H](Cc1c[nH]c2ccccc12)C(=O)NCCO)C(C)C)C(C)C)C(C)C [compound 7146] (For-VGA[dV]A[dL]V[dV]W[dL]W[dV]W[dL]W-NHCH2CH2OH)	+	1.17	100.0
CNC(=O)C[C@@H](NC(=O)[C@H](Cc1c[nH]c2ccccc12)NC(=O)[C@H](NC(=O)[C@H](Cc1c[nH]c2ccccc12)NC(=O)[C@H](NC(=O)[C@H](Cc1c[nH]c2ccccc12)NC(=O)[C@@H](CC(C)C)NC(=O)[C@@H](NC(=O)[C@H](NC(=O)[C@H](C)NC(=O)[C@H](NC(=O)[C@H](C)NC(=O)CNC(=O)[C@@H](NC=O)C(C)C)C(C)C)C(C)C)C(C)C)C(C)C)C(C)C)C(=O)N[C@@H](Cc1c[nH]c2ccccc12)C(=O)NCCO [compound 12691] (For-VGA[dV]A[dV]V[dL]W[dV]W[dV]W[dD](NHMe)W-NHCH2CH2OH)	-	1.11	100.0
CNC(=O)C[C@@H](NC(=O)[C@@H](NC(=O)[C@H](NC(=O)[C@H](C)NC(=O)[C@@H](CC(C)C)NC(=O)[C@H](C)NC(=O)CNC(=O)[C@@H](NC=O)C(C)C)C(C)C)C(C)C)C(=O)N[C@@H](Cc1c[nH]c2ccccc12)C(=O)N[C@H](CC(C)C)C(=O)N[C@@H](Cc1c[nH]c2ccccc12)C(=O)N[C@@H](C(=O)N[C@@H](Cc1c[nH]c2ccccc12)C(=O)N[C@H](CC(C)C)C(=O)N[C@@H](Cc1c[nH]c2ccccc12)C(=O)NCCO)C(C)C [compound 2881] (For-VGA[dL]A[dV]V[dD](NHMe)W[dL]W[dV]W[dL]W-NHCH2CH2OH)	-	1.16	100.0
